Assay results as given in ChEMBL document CHEMBL3763146 (J Med Chem, 2016).

Legend:
[1] = Oral bioavailability in rat at 2 mg/kg; format: ADME, organism-based; conditions: in vivo
[2] = system: Rhesus monkey; experiment: Dose normalized fAUC in rhesus monkey at 2 mg/kg, po; format: ADME, organism-based, Macaca mulatta; conditions: in vivo
[3] = system: Rhesus monkey; experiment: Unbound clearance in rhesus monkey at 0.5 mg/kg, iv or 2 mg/kg, po; format: ADME, organism-based, Macaca mulatta; conditions: in vivo
[4] = biological target: Beta-3 adrenergic receptor (Canis lupus familiaris, UniProt O02662); experiment: Agonist activity at dog beta3 adrenergic receptor expressed in CHO cells assessed as accumulation of cAMP after 30 mins by TR-FRET assay; format: functional, cell-based
Chain of Beta-3 adrenergic receptor (Canis lupus familiaris, UniProt O02662) (O02662 whole entry): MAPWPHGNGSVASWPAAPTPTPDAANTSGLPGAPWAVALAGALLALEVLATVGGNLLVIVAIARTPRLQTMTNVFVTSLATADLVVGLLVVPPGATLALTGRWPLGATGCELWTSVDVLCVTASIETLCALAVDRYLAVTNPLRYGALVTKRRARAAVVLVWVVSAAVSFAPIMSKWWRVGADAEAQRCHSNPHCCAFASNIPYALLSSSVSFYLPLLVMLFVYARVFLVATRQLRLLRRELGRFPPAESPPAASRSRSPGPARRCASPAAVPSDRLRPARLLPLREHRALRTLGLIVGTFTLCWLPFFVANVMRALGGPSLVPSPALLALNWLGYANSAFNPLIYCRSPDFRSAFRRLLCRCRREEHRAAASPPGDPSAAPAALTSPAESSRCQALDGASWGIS

[5] = Stability in rat plasma assessed as parent compound remaining at 24 hrs by LC-MS analysis; format: ADME, cell-free; conditions: read-out: Stability
[6] = biological target: T1, Beta-3 adrenergic receptor (Homo sapiens, UniProt P13945); experiment: Agonist activity at human adrenergic beta3 receptor expressed in CHO cells assessed as accumulation of cAMP after 30 mins by TR-FRET assay in presence of 40% serum; format: functional, cell-based
Target sequence in this assay (P13945 whole entry): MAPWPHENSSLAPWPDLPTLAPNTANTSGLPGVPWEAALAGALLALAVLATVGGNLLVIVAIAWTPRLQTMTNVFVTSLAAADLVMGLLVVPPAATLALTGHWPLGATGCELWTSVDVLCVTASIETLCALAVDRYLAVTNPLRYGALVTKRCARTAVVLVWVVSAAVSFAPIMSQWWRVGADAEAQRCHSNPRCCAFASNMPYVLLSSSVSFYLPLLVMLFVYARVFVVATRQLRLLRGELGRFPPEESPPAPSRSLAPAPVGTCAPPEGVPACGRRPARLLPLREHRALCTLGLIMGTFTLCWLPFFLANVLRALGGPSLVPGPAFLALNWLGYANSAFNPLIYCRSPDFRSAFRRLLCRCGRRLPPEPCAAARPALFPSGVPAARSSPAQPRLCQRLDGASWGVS

[7] = biological target: T1, Beta-3 adrenergic receptor; experiment: Agonist activity at human beta3 adrenergic receptor expressed in CHO cells assessed as accumulation of cAMP after 30 mins by TR-FRET assay relative to (R)-(-)-isoproterenol; format: functional, cell-based
Target sequence in this assay (P13945 whole entry, looked up): as the sequence (P13945 whole entry) above

[8] = Stability in rhesus monkey plasma assessed as parent compound remaining at 24 hrs by LC-MS analysis; format: ADME, cell-free, Macaca mulatta; conditions: read-out: Stability
[9] = biological target: Beta-3 adrenergic receptor (Rattus norvegicus) (UniProt P26255); experiment: Agonist activity at rat beta3 adrenergic receptor expressed in CHO cells assessed as accumulation of cAMP after 30 mins by TR-FRET assay relative to (R)-(-)-isoproterenol; format: functional, cell-based
Chain of Beta-3 adrenergic receptor (Rattus norvegicus) (P26255 whole entry): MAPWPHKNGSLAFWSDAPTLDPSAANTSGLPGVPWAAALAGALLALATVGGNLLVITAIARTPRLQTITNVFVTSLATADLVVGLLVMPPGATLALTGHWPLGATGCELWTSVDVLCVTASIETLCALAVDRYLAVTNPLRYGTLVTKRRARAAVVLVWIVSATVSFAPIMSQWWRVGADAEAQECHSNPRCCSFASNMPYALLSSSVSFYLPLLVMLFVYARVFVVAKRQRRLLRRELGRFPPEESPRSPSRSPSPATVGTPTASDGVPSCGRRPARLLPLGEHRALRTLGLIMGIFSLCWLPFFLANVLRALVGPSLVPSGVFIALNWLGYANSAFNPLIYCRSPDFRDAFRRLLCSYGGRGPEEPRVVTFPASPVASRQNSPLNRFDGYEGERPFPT

[10] = Inhibition of rat choline transporter
[11] = Intrinsic clearance in dog liver microsomes; format: ADME, Canis lupus familiaris; conditions: read-out: CLH
[12] = Stability in human plasma assessed as parent compound remaining at 24 hrs by LC-MS analysis; format: ADME, cell-free; conditions: read-out: Stability
[13] = biological target: Beta-2 adrenergic receptor (Homo sapiens, UniProt P07550)
Chain of Beta-2 adrenergic receptor (P07550 whole entry): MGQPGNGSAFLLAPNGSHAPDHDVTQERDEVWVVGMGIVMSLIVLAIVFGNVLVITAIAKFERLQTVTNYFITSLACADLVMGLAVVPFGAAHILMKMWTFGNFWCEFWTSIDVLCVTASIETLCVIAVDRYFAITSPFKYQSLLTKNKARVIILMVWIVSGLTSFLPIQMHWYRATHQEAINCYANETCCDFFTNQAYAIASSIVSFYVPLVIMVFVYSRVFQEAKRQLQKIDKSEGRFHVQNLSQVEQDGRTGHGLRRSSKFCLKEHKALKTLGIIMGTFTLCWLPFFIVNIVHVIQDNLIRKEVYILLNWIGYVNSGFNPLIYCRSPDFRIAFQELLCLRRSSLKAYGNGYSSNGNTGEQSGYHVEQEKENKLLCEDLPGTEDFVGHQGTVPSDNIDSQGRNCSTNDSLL
Description: Displacement of [125]I-cyanopindolol from human recombinant beta2 adrenergic receptor after 1 hr by scintillation counting method

[14] = biological target: Voltage-gated inwardly rectifying potassium channel KCNH2 (Homo sapiens, UniProt Q12809); experiment: Binding affinity to human ERG channel
[15] = system: Canis familiaris; experiment: Dose normalized fAUC in dog at 2 mg/kg, po; format: ADME, organism-based, Canis lupus familiaris; conditions: in vivo
[16] = biological target: T2, Beta-3 adrenergic receptor (Macaca mulatta, UniProt Q28524); experiment: Agonist activity at rhesus monkey beta3 adrenergic receptor expressed in CHO cells assessed as accumulation of cAMP after 30 mins by TR-FRET assay in presence of 40% serum; format: functional, cell-based
T2 sequence (Q28524 whole entry): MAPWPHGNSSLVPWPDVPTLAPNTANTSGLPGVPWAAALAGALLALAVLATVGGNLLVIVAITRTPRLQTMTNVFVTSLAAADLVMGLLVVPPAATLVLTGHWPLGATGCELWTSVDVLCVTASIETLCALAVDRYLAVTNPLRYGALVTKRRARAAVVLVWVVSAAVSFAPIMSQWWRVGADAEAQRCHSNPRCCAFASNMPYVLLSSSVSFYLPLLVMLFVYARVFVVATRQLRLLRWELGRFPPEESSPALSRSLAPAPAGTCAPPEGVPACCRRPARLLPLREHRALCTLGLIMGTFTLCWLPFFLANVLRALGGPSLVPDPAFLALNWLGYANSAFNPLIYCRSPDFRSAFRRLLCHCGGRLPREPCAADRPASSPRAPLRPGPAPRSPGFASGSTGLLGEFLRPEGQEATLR

[17] = biological target: T1, Beta-3 adrenergic receptor; experiment: Agonist activity at human adrenergic beta3 receptor expressed in CHO cells assessed as accumulation of cAMP after 30 mins by TR-FRET assay in presence of 40% serum relative to (R)-(-)-isoproterenol; format: functional, cell-based
Target sequence in this assay (P13945 whole entry, looked up): as the sequence (P13945 whole entry) above

[18] = Fraction unbound in rat at 1 mg/kg, iv or 2 mg/kg, po; format: ADME, organism-based; conditions: in vivo
[19] = biological target: Sodium-dependent serotonin transporter (Homo sapiens, UniProt P31645); experiment: Inhibition of human SERT expressed in HEK293 cells preincubated for 30 mins followed by fluorescent substrate addition measured after 30 mins by plate reader analysis; format: cell-based
[20] = system: Rattus norvegicus; experiment: Unbound clearance in rat at 1 mg/kg, iv or 2 mg/kg, po; format: ADME, organism-based; conditions: in vivo
[21] = Plasma clearance in dog at 0.5 mg/kg, iv or 2 mg/kg, po; format: ADME, organism-based, Canis lupus familiaris
[22] = Intrinsic clearance in rhesus monkey liver microsomes; format: ADME, Macaca mulatta; conditions: read-out: CLH
[23] = biological target: Beta-3 adrenergic receptor (Macaca mulatta) (UniProt Q28524); experiment: Agonist activity at rhesus monkey beta3 adrenergic receptor expressed in CHO cells assessed as accumulation of cAMP after 30 mins by TR-FRET assay relative to (R)-(-)-isoproterenol; format: functional, cell-based
Chain of Beta-3 adrenergic receptor (Macaca mulatta) (Q28524 whole entry): as the sequence (Q28524 whole entry) above

[24] = system: Rattus norvegicus; experiment: Dose normalized fAUC in rat at 2 mg/kg, po; format: ADME, organism-based; conditions: in vivo
[25] = system: Rhesus monkey; experiment: Dose normalized total AUC in rhesus monkey at 2 mg/kg, po; format: ADME, organism-based, Macaca mulatta; conditions: in vivo
[26] = system: Rattus norvegicus; experiment: Dose normalized total AUC in rat at 2 mg/kg, po; format: ADME, organism-based; conditions: in vivo
[27] = biological target: Sodium channel protein type 2 subunit alpha (Homo sapiens, UniProt Q99250); experiment: Inhibition of human Nav1.2 channel expressed in Xenopus oocytes by two-intracellular microelectrode voltage clamp method; format: cell-based
[28] = Plasma clearance in rhesus monkey at 0.5 mg/kg, iv or 2 mg/kg, po; format: ADME, organism-based, Macaca mulatta
[29] = Half life in rhesus monkey at 0.5 mg/kg, iv or 2 mg/kg, po; format: ADME, organism-based, Macaca mulatta; conditions: in vivo
[30] = Oral bioavailability in rhesus monkey at 2 mg/kg; format: ADME, organism-based, Macaca mulatta; conditions: in vivo
[31] = Distribution coefficient, logD of the compound at pH 7.4; format: physicochemical; conditions: octanol/water
[32] = biological target: Beta-3 adrenergic receptor (Macaca mulatta) (UniProt Q28524); experiment: Agonist activity at rhesus monkey beta3 adrenergic receptor expressed in CHO cells assessed as accumulation of cAMP after 30 mins by TR-FRET assay in presence of 40% serum relative to (R)-(-)-isoproterenol; format: functional, cell-based
[33] = Plasma clearance in rat at 1 mg/kg, iv or 2 mg/kg, po; format: ADME, organism-based
[34] = Stability in dog plasma assessed as parent compound remaining at 24 hrs by LC-MS analysis; format: ADME, cell-free, Canis lupus familiaris; conditions: read-out: Stability
[35] = Oral bioavailability in dog at 2 mg/kg; format: ADME, organism-based, Canis lupus familiaris; conditions: in vivo
[36] = Half life in dog at 0.5 mg/kg, iv or 2 mg/kg, po; format: ADME, organism-based, Canis lupus familiaris; conditions: in vivo
[37] = Intrinsic clearance in human liver microsomes; format: ADME; conditions: read-out: CLH
[38] = system: Rattus norvegicus; experiment: Increase in detrusor muscle relaxation in iv infused Sprague-Dawley rat acetic acid-induced bladder hyperreflexia model assessed as decrease in micturition pressure measured over 30 to 45 mins; format: functional, organism-based
[39] = system: Canis familiaris; experiment: Unbound clearance in dog at 0.5 mg/kg, iv or 2 mg/kg, po; format: ADME, organism-based, Canis lupus familiaris; conditions: in vivo
[40] = biological target: T3, Beta-3 adrenergic receptor (Rattus norvegicus, UniProt P26255); experiment: Agonist activity at rat beta3 adrenergic receptor expressed in CHO cells assessed as accumulation of cAMP after 30 mins by TR-FRET assay in presence of 40% serum; format: functional, cell-based
T3 sequence (P26255 whole entry): as the sequence (P26255 whole entry) above

[41] = Induction of phospholidosis in human HepG2 cells incubated overnight by […] in presence of fluorescent labeled phospholipid probe NBD-PE; format: cell-based; conditions: read-out: A50
[42] = biological target: Voltage-dependent L-type calcium channel subunit alpha-1C (Homo sapiens, UniProt Q13936); experiment: Displacement of [3H]-diltiazem from human Cav1.2 channel
Chain of Voltage-dependent L-type calcium channel subunit alpha-1C (Q13936 whole entry): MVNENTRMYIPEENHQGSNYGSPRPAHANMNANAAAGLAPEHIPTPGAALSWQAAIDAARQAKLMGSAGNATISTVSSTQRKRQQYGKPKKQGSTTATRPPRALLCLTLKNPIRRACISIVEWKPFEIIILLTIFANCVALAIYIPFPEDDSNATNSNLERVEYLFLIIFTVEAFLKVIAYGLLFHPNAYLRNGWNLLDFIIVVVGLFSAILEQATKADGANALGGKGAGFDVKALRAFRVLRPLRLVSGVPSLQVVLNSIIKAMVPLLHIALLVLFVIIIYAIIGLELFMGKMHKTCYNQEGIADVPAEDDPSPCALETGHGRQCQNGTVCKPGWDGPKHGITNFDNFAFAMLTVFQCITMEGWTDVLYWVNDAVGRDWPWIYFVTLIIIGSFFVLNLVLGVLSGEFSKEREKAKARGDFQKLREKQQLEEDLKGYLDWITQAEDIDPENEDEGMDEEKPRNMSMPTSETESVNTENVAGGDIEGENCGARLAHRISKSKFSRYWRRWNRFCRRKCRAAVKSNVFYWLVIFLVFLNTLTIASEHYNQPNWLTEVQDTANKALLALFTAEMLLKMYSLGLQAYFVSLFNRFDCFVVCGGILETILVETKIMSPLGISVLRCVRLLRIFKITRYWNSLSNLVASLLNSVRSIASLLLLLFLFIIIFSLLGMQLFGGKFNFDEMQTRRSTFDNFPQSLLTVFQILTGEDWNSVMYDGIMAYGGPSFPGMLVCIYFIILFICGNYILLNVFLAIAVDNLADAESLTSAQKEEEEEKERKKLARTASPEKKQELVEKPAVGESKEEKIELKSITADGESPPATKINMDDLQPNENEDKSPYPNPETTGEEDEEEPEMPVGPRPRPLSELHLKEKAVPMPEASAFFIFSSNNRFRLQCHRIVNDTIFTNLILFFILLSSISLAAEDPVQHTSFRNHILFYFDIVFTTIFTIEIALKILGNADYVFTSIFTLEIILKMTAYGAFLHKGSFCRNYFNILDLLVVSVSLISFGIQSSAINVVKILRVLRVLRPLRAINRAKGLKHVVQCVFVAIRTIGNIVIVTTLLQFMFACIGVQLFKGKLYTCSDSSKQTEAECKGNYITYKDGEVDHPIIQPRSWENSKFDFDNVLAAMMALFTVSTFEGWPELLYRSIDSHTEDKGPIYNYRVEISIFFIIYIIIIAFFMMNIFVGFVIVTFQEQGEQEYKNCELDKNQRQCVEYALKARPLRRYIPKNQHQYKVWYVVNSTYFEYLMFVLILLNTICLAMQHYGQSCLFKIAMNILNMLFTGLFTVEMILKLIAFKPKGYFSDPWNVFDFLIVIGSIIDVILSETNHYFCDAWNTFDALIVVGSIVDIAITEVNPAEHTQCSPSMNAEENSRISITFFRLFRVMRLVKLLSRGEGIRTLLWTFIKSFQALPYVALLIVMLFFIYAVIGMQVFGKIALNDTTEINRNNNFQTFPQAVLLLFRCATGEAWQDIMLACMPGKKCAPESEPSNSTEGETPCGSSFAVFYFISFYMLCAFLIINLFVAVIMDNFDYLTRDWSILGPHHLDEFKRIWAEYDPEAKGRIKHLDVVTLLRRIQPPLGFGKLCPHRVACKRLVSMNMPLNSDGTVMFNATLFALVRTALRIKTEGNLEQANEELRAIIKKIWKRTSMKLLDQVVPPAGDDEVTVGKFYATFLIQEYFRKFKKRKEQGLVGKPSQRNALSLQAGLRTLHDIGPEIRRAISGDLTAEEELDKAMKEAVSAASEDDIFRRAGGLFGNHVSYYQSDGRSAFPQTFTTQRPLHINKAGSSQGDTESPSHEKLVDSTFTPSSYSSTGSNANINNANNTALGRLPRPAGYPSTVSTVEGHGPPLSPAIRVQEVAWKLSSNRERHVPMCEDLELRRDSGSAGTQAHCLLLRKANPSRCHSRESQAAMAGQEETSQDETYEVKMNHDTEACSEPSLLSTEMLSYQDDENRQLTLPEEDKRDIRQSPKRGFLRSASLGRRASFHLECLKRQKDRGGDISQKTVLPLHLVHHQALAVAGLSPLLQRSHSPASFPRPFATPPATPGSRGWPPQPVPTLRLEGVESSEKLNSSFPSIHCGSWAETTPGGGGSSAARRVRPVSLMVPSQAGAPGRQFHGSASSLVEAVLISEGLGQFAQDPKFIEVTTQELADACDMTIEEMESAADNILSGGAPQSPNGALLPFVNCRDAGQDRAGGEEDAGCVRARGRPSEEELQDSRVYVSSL

[43] = Half life in rat at 1 mg/kg, iv or 2 mg/kg, po; format: ADME, organism-based; conditions: in vivo
[44] = biological target: Beta-3 adrenergic receptor (Rattus norvegicus) (UniProt P26255); experiment: Agonist activity at rat beta3 adrenergic receptor expressed in CHO cells assessed as accumulation of cAMP after 30 mins by TR-FRET assay in presence of 40% serum relative to (R)-(-)-isoproterenol; format: functional, cell-based
[45] = Fraction unbound in dog at 0.5 mg/kg, iv or 2 mg/kg, po; format: ADME, organism-based, Canis lupus familiaris; conditions: in vivo
[46] = biological target: Beta-1 adrenergic receptor (Homo sapiens, UniProt P08588)
Chain of Beta-1 adrenergic receptor (P08588 whole entry): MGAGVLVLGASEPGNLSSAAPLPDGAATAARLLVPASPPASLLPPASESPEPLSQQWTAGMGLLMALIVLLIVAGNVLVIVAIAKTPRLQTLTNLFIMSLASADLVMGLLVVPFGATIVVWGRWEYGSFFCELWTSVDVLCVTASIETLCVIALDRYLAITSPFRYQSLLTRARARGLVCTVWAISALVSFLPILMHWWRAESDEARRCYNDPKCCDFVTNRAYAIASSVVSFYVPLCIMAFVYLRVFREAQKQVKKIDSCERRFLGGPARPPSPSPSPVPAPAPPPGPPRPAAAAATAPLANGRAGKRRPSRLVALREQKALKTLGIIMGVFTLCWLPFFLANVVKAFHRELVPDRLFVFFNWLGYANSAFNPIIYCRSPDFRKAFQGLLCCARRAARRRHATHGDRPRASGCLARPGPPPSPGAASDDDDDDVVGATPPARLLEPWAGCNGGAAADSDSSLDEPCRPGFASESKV
Description: Displacement of [125]I-cyanopindolol from recombinant human beta1 adrenergic receptor after 1 hr by scintillation counting method

[47] = Intrinsic clearance in rat liver microsomes; format: ADME; conditions: read-out: CLH
[48] = biological target: T3, Beta-3 adrenergic receptor; experiment: Agonist activity at rat beta3 adrenergic receptor expressed in CHO cells assessed as accumulation of cAMP after 30 mins by TR-FRET assay; format: functional, cell-based
[49] = system: Rattus norvegicus; experiment: Increase in detrusor muscle relaxation in iv infused Sprague-Dawley rat acetic acid-induced bladder hyperreflexia model assessed as increase in functional bladder capacity measured over 30 to 45 mins; format: organism-based
[50] = biological target: T2, Beta-3 adrenergic receptor; experiment: Agonist activity at rhesus monkey beta3 adrenergic receptor expressed in CHO cells assessed as accumulation of cAMP after 30 mins by TR-FRET assay; format: functional, cell-based
[51] = biological target: T1, Beta-3 adrenergic receptor; experiment: Agonist activity at human beta3 adrenergic receptor expressed in CHO cells assessed as accumulation of cAMP after 30 mins by TR-FRET assay; format: functional, cell-based
Target sequence in this assay (P13945 whole entry): as the sequence (P13945 whole entry) above

[52] = Fraction unbound in rhesus monkey at 0.5 mg/kg, iv or 2 mg/kg, po; format: ADME, organism-based, Macaca mulatta; conditions: in vivo
[53] = system: Canis familiaris; experiment: Dose normalized total AUC in dog at 2 mg/kg, po; format: ADME, organism-based, Canis lupus familiaris; conditions: in vivo

In the case of `C[C@@H](C(=O)Nc1ccc(C[C@@H]2CC[C@H]([C@H](O)c3ccccc3)N2)cc1)n1ncccc1=O`, the bioavailability [1] is reported as 10%, the fAUC/dose [2] is reported as 213 nM·h/mg/kg and the CL free [3] is reported as 46 mL/min/kg. It also gave an EC50 [4] of 39 nM, a remaining at 24 h [5] of 95% and an EC50 [6] of 2.1 nM. It also gave a max activation [7] of 92%, a remaining at 24 h [8] of 99% and a max activation [9] of 85%. For the same compound, the IC50 [10] was 2300 nM, the CLint scaled [11] was 34 mL/min/kg and the remaining at 24 h [12] was 100%. For the same compound, the IC50 [13] was over 20000 nM, the IC50 [14] was over 30000 nM and the fAUC/dose [15] was 113 nM·h/mg/kg. It also gave an EC50 [16] of 12 nM, a max activation [17] of 98% and a fraction unbound [18] of 0.2. For the same compound, the IC50 [19] was over 10000 nM, the CL free [20] was 180 mL/min/kg and the clearance [21] was 23 mL/min/kg. The CLint scaled [22] was 17 mL/min/kg, the max activation [23] was 91% and the fAUC/dose [24] was 20 nM·h/mg/kg. The AUC/dose [25] was 300 nM·h/mg/kg, the AUC/dose [26] was 100 nM·h/mg/kg and the IC50 [27] was over 30000 nM. The clearance [28] was 33 mL/min/kg, the half-life [29] was 9 h and the bioavailability [30] was 29%. The logD [31] was 1.3, the max activation [32] was 91% and the clearance [33] was 36 mL/min/kg. The remaining at 24 h [34] was 77%, the bioavailability [35] was 91% and the half-life [36] was 9 h. For the same compound, the CLint scaled [37] was 10 mL/min/kg, the Activity [38] was “Dose-dependent effect” and the CL free [39] was 59 mL/min/kg. It also gave an EC50 [40] of 245 nM, an AC50 [41] of 42000 nM and an IC50 [42] of over 30000 nM. It also gave a half-life [43] of 2 h, a max activation [44] of 83% and a fraction unbound [45] of 0.39. It also gave an IC50 [46] of over 20000 nM, a CLint scaled [47] of 31 mL/min/kg and an EC50 [48] of 531 nM. For the same compound, the Activity [49] was “Dose-dependent effect”, the EC50 [50] was 2.5 nM and the EC50 [51] was 2.7 nM. For the same compound, the fraction unbound [52] was 0.71 and the AUC/dose [53] was 290 nM·h/mg/kg.
